Experimental data from BindingDB's records for PubMed 9694962 (Memorial Sloan-Kettering Cancer Center, 1998).
Several values for one entry are separate records, joined by “and”; a condition that tells them apart may be missing. Identical values can stand only once. Where a SMILES comes first, the peptide text is derived from it.

Tests used:
Mu-type opioid receptor [1] = target: Mu-type opioid receptor (Bos taurus, UniProt P79350)
Mu-type opioid receptor [2] = target: Mu-type opioid receptor (Mus musculus, UniProt P42866)
Sequence of Mu-type opioid receptor (Mus musculus, UniProt P42866) (P42866 whole entry): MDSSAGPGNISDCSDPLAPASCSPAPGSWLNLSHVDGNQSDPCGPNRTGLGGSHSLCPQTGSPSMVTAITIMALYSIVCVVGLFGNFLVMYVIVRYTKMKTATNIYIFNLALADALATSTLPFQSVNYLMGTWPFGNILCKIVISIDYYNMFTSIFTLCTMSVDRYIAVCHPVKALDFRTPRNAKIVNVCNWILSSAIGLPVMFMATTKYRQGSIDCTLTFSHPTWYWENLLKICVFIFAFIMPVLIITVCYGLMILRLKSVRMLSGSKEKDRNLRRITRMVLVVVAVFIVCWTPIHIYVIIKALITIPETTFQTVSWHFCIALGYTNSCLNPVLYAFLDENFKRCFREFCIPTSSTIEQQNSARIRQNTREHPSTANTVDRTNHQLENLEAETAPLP

Sequence of Mu-type opioid receptor (Bos taurus, UniProt P79350) (P79350 whole entry): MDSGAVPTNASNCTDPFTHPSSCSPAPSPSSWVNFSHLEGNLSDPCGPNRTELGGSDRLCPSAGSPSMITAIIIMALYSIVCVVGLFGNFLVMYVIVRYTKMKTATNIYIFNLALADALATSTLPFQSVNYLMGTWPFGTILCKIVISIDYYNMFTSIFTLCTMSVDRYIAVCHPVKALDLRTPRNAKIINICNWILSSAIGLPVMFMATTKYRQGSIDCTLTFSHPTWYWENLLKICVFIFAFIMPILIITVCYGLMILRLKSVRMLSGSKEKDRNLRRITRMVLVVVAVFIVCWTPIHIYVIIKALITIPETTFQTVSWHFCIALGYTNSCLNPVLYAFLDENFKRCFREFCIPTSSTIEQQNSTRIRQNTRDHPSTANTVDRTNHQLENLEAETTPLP

Row | Structure (SMILES) | Ki (Mu-type opioid receptor [1]) | Ki (Mu-type opioid receptor [2])
1 | NC(=O)[C@H](Cc1ccccc1)NC(=O)[C@H](Cc1ccccc1)NC(=O)[C@@H]1CCCN1C(=O)[C@@H](N)Cc1ccc(O)cc1 | 0.43 nM and 4 nM | 
2 | C=CCN1CCC23c4c5ccc(O)c4O[C@@H]2C(=NNC(=O)c2ccccc2)CCC3(O)C1C5 (some centres not stated) |  | 0.2 nM and 0.12 nM
3 | COc1ccc2c3c1O[C@H]1C(=O)CC[C@@]4(O)[C@@H](C2)N(CC2CC2)CC[C@]314 |  | 20.3 nM and 21.2 nM
4 | CC(C)C[C@H](NC(=O)[C@H](Cc1ccccc1)NC(=O)CNC(=O)CNC(=O)[C@@H](N)Cc1ccc(O)cc1)C(=O)N[C@@H](CCCN=C(N)N)C(=O)N[C@@H](CCCN=C(N)N)C(=O)N[C@@H](CCC(N)=O)C(=O)N[C@@H](Cc1ccccc1)C(=O)N[C@@H](CCCCN)C(=O)N[C@H](C(=O)N[C@H](C(=O)N[C@H](C(=O)O)[C@@H](C)O)C(C)C)C(C)C [(Dynorphin)2-[2-(2-{2-[2-(2-{2-[2-Amino-3-(4-hydroxy-phenyl)-propionylamino]-acetylamino}-acetylamino)-3-phenyl-propionylamino]-4-methyl-pentanoylamino}-5-guanidino-pentanoylamino)-5-guanidino-pentanoylamino]-3-methyl-pentanoic acid] |  | 39.8 nM and 11.4 nM
5 | CC[C@H](C)[C@H](NC(=O)[C@H](C)NC(=O)[C@H](CC(N)=O)NC(=O)[C@H](CCCCN)NC(=O)[C@H](Cc1ccccc1)NC(=O)[C@H](CC(C)C)NC(=O)[C@@H](NC(=O)[C@@H](NC(=O)[C@H](CC(C)C)NC(=O)[C@@H]1CCCN1C(=O)[C@@H](NC(=O)[C@H](CCC(N)=O)NC(=O)[C@H](CO)NC(=O)[C@H](CCCCN)NC(=O)[C@H](CCC(=O)O)NC(=O)[C@H](CO)NC(=O)[C@@H](NC(=O)[C@H](CCSC)NC(=O)[C@H](Cc1ccccc1)NC(=O)CNC(=O)CNC(=O)[C@@H](N)Cc1ccc(O)cc1)[C@@H](C)O)[C@@H](C)O)C(C)C)[C@@H](C)O)C(=O)N[C@H](C(=O)N[C@@H](CCCCN)C(=O)N[C@@H](CC(N)=O)C(=O)N[C@@H](C)C(=O)N[C@@H](Cc1cnc[nH]1)C(=O)N[C@@H](CCCCN)C(=O)N[C@@H](CCCCN)C(=O)NCC(=O)N[C@@H](CCC(N)=O)C(=O)O)C(C)C [Beta-Endorphin] (H-YGGFMTSEKSQTPLVTLFKNAIVKNAHKKGQ-OH) |  | 10.9 nM and 3.22 nM
6 | NC(=O)CNC(=O)[C@H](Cc1c[nH]c2ccccc12)NC(=O)[C@@H]1CCCN1C(=O)[C@@H](N)Cc1ccc(O)cc1 [CAS_132632] (H-YPWG-NH2) |  | 18 nM and 44.7 nM
7 | CC(C)C[C@H](NC(=O)[C@H](Cc1ccccc1)NC(=O)CNC(=O)[C@@H](CO)NC(=O)[C@@H](N)Cc1ccc(O)cc1)C(=O)N[C@H](C(=O)O)[C@@H](C)O [DSLET-OH] |  | 20 nM and 10.8 nM
8 | CC[C@H](C)[C@H](NC(=O)[C@H](CCCNC(=N)N)NC(=O)[C@H](CCCNC(=N)N)NC(=O)[C@H](CC(C)C)NC(=O)[C@H](Cc1ccccc1)NC(=O)CNC(=O)CNC(=O)[C@@H](N)Cc1ccc(O)cc1)C(=O)N[C@@H](CCCNC(=N)N)C(=O)N1CCC[C@H]1C(=O)N[C@@H](CCCCN)C(=O)N[C@@H](CC(C)C)C(=O)N[C@@H](CCCCN)C(=O)N[C@@H](Cc1c[nH]c2ccccc12)C(=O)N[C@@H](CC(=O)O)C(=O)N[C@@H](CC(N)=O)C(=O)N[C@@H](CCC(N)=O)C(=O)O [Dynorphin A (1-17)] |  | 12.8 nM and 3.32 nM
9 | NC(=O)[C@H](Cc1ccccc1)NC(=O)[C@H](Cc1c[nH]c2ccccc12)NC(=O)[C@@H]1CCCN1C(=O)[C@@H](N)Cc1ccc(O)cc1 [Endomorphin 1] | 0.67 nM and 3.2 nM | 
10 | C=CCN1CC[C@]23CCCCC2[C@H]1Cc1ccc(O)cc13 (some centres not stated) [Levallorphan] |  | 0.97 nM and 0.96 nM
11 | CN1CCC23c4c5ccc(O)c4O[C@H]2[C@@H](OC2OC(C(=O)O)C(O)C(O)C2O)C=C[C@H]3[C@H]1C5 (some centres not stated) [Morphine 6-glucuronide] |  | 2.35 nM and 2.47 nM
12 | CSCC[C@H](NC(=O)[C@H](Cc1ccccc1)NC(=O)CNC(=O)CNC(=O)[C@@H](N)Cc1ccc(O)cc1)C(=O)N[C@@H](CCCNC(=N)N)C(=O)N[C@@H](Cc1ccccc1)C(=O)O [enkephalin-Met, Arg(6)-Phe(7)] (H-YGGFMRF-OH) |  | 30 nM and 13.4 nM
